Reference: US5529989A (Arizona Board of Regents acting on behalf of Arizona State …, priority 1995, dated 1996)
In brackets after ≈: the same amount, converted by molar mass. Entries after “also recorded” stand apart in the source; their conditions may differ.

Assays:
[1] = stability of the phosphoric acid; type: physicochemical; conditions: isolated after hydrogenolysis
[2] = tested on: U.S. National Cancer Institute's (NCI) panel of sixty human cancer cell lines; assay: cancer cell growth inhibition, NCI panel of sixty human cancer cell lines; type: cell-based
Procedure: (§1) There is no mathematical difference between ED50 and GI50, which are both calculated using the same formula. The only difference is historical usage.
Total Growth Inhibition ("TGI"), is the drug dose needed to yield zero percent growth, i.e., just as many cells at the end of the experiment as were present in the beginning. Whether just as many cells were killed as were produced (steady state), or no growth occurred (total inhibition), cannot be distinguished.
(§2) Each drug is tested at five (5) doses: 100--10--1--0.1--0.01 μg/ml. Percent Growths are calculated for each dose. […] The log of the dose is used during the regression computation.
(§3) At the start of an experiment, cells from the in vitro cell cultures are inoculated into the appropriate tubes or microtiter plates. One set of control tubes/plates is immediately counted to determine the number of cells at the start of the experiment. This is the "baseline count" or "Tzero reading". At the end of the experiment (48 hours later) a second set of control tubes/plates is analyzed to determine the "Control Growth" value. The growth (or death) of cells relative to the initial quantity of cells is used to define the "Percent of Growth".

[3] = tested on: murine P388 lymphocytic leukemia cell line; assay: growth inhibition of murine P388 lymphocytic leukemia cell line in vitro; type: cell-based
Procedure: as §1, §2, §3

water solubility = type: physicochemical
cancer cell = cancer cell growth inhibitory comparison of pancratistatin with its phosphate prodrug; type: cell-based; conditions: versus pancratistatin (1)
Procedure: as §1, §2, §3

[4] = tested on: M5074 murine ovary sarcoma; conditions: 0.38 to 3.0 mg active reagent/kg host body weight; from U.S. Pat. No. 4,985,436; cited from earlier work
[5] = tested on: experimental melanoma and ovary carcinoma; conditions: cited from earlier work
RNA viruses = conditions: cited from earlier work
[6] = tested on: M5074 murine ovary sarcoma; conditions: 6 mg/kg host body weight; from U.S. Pat. No. 4,985,436; cited from earlier work
[7] = cited from earlier work
[8] = tested on: murine P388 lymphocytic leukemia; conditions: 0.75-12.5 mg/kg host body weight, from U.S. Pat. No. 4,985,436; cited from earlier work
[9] = tested on: murine P388 lymphocytic leukemia cell line; conditions: from U.S. Pat. No. 4,985,436, cited from earlier work

Structure (SMILES) | stability [1] | direct comparison of phosphate (5) and pancratistatin (1) [2] | GI50 ([3]; Mus musculus, 48 h, murine P388 lymphocytic leukemia cell line, dose needed to reduce the percent growth to 50%, read-out: ED50 (the source's name)) | ED50 compared with pancratistatin (1) ([3]; murine P388 lymphocytic leukemia, versus pancratistatin (1)) | solubility (water solubility) | cancer cell growth inhibition compared with pancratistatin (1) (cancer cell) | life extension [4] | activity against experimental melanoma and ovary carcinoma [5] | activity against a range of RNA viruses (RNA viruses) | cure rate [6] | solubility in water (in words) [7] | life extension [8] | ED50 ([9]; P388 in vitro cell line, 2880 min) | inhibition of growth of P388 in vitro cell line (in words) [9]
CC(=O)O[C@@H]1[C@@H](OC(C)=O)[C@H](OC(C)=O)[C@@H]2c3cc4c(c(OP(=O)(O)O)c3C(=O)N[C@H]2[C@@H]1OC(C)=O)OCO4 [4b, 7-phosphoryl-pancratistatin tetraacetate] | unstable |  |  |  |  |  |  |  |  |  |  |  |  | 
O=C1N[C@H]2[C@H](O)[C@H](O)[C@@H](O)[C@H](O)[C@@H]2c2cc3c(c(OP(=O)(O)O)c21)OCO3 [compound (5), Disodium 7-Phosphoryl-Pancratistatin] |  | comparable results for both compounds | 0.032 µg/mL | essentially comparable to that found for pancratistatin (1) | > 230 mg/mL | same cancer cell growth inhibition as pancratistatin (1); also recorded: very comparable results |  |  |  |  |  |  |  | 
O=C1N[C@H]2[C@H](O)[C@H](O)[C@@H](O)[C@H](O)[C@@H]2c2cc3c(c(O)c21)OCO3 [pancratistatin] |  | comparable results for both compounds |  |  |  |  | 53% to 84 | potent activity | activity against a range of RNA viruses | 50% | at best sparingly soluble in water | 38-106% | 0.001 µg/mL (≈ 3.07 nM) | markedly inhibited growth
